Measurements taken from patent US9758527B2, “Cyclohexene derivative, preparation method therefor, and pharmaceutical composition for preventing or treating metabolic diseases, containing same as active ingredient” (HYUNDAI PHARM CO., LTD., priority 2014, dated 2017).
Where two headings read alike, the source gives them in different places.

Molecular target: T1, G protein-coupled receptor 119 (GPR-119) (Mesocricetus auratus, UniProt A0A1U8CD06)
T1 construct: hamster-derived β-cells containing G protein-coupled receptor 119 (GPR-119), HIT-T15 cells; host or cells: HIT-T15 (hamster pancreatic β-cells)
T1 sequence (A0A1U8CD06 1-334): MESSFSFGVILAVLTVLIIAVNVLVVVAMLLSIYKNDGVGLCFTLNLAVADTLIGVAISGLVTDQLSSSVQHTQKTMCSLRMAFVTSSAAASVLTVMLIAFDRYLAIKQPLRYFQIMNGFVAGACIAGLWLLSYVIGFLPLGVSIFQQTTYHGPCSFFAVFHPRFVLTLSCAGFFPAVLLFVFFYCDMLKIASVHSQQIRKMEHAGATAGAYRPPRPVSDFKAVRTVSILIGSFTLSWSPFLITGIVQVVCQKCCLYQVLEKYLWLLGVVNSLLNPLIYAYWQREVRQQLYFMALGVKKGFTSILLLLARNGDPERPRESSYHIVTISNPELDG
Assay: Evaluation of cAMP activity in HIT-T15 cells (HTRF cAMP dynamic kit)
Assay type: cell-based, hamster
Settings: cAMP activation
Procedure, shortened: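 HIT-T15 cells, 60,000/well, treated next day with compound at six concentrations ([…]) for 1 h at 37° C. Lysate cAMP quantified by HTRF competitive immunoassay (D2-cAMP, cryptate anti-cAMP); activity taken as change in FRET signal relative to DMSO.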

[1] = 1 h at 37° C., six concentrations, read-out: EC50

| SMILES | EC50 [1] | EC50 (read-out: EC50 value) | EC50 (EC50 (nM), 1 h at 37° C., six concentrations) | EC50 (EC50 value) |
| --- | --- | --- | --- | --- |
| CC(C)c1noc(N2CCC(COc3ccc(C4=CCC(C(=O)NCCF)CC4)cc3F)CC2)n1 (stereo not shown) [Example 94, 4-(3-fluoro-4-((1-(3-isopropyl-1,2,4-oxadiazol-5-yl)piperidin-4-yl)methoxy)phenyl)-N-(2-fluoroethyl)cyclohex-3-enecarboxamide] | 68 nM | – | – | – |
| CC(C)(C)OC(=O)N1CCC(COc2ccc(C3=CCC(C(=O)N4CC[C@@H](F)C4)CC3)cc2F)CC1 (stereo partly drawn) [Example 58, tert-butyl 4-((2-fluoro-4-(4-((R)-3-fluoropyrrolidine-1-carbonyl)cyclohex-1-enyl)phenoxy)methyl)piperidine-1-carboxylate] | – | ≤ 50 nM | – | – |
| CC(C)(C)OC(=O)N1CCC(COc2ccc(C3=CCC(C(=O)NCC(F)(F)F)CC3)cn2)CC1 (stereo not shown) [Example 86, tert-butyl 4-((5-(4-(2,2,2-trifluoroethylcarbamoyl)cyclohex-1-enyl)pyridin-2-yloxy)methyl)piperidine-1-carboxylate] | 130 nM | – | – | – |
| C[C@H](O)CNC(=O)C1CC=C(c2ccc(OCC3CCN(C(=O)OC(C)(C)C)CC3)c(F)c2)CC1 (stereo partly drawn) [Example 61, tert-butyl 4-((2-fluoro-4-(4-((S)-2-hydroxypropylcarbamoyl)cyclohex-1-enyl)phenoxy)methyl)piperidine-1-carboxylate] | 45 nM | ≤ 50 nM | – | – |
| CON(C)C(=O)C1CC=C(c2ccc(OCC3CCN(C(=O)OC(C)(C)C)CC3)cc2)CC1 (stereo not shown) [Example 223, tert-butyl 4-((4-(4-(methoxy(methyl)carbamoyl)cyclohex-1-enyl)phenoxy)methyl)piperidine-1-carboxylate] | 25 nM | ≤ 50 nM | – | – |
| CC(C)c1noc(N2CCC(COc3ccc(C4=CCC(C(=O)NCC(=O)N5CCC[C@@H]5C(N)=O)CC4)cc3F)CC2)n1 (stereo partly drawn) [Example 121, (2R)-1-(2-(4-(3-fluoro-4-((1-(3-isopropyl-1,2,4-oxadiazol-5-yl)piperidin-4-yl)methoxy)phenyl)cyclohex-3-enecarboxamido)acetyl)pyrrolidine-2-carboxamide] | 500 nM | – | – | – |
| CC(C)c1noc(N2CCC(COc3ccc(C4=CCC(C(=O)N5CCN(C6CC6)CC5)CC4)cc3)CC2)n1 (stereo not shown) [Example 89, (4-cyclopropylpiperazin-1-yl)(4-(4-((1-(3-isopropyl-1,2,4-oxadiazol-5-yl)piperidin-4-yl)methoxy)phenyl)cyclohex-3-enyl)methanone] | 21 nM | ≤ 50 nM | – | – |
| CC(C)c1noc(N2CCC(COc3ccc(C4=CCC(C(=O)NC[C@H](C)O)CC4)cc3)CC2)n1 (stereo partly drawn) [Example 29, N-((S)-2-hydroxypropyl)-4-(4-((1-(3-isopropyl-1,2,4-oxadiazol-5-yl)piperidin-4-yl)methoxy)phenyl)cyclohex-3-enecarboxamide] | 95 nM | – | – | – |
| CCc1cnc(N2CCC(COc3ccc(C4=CCC(C(=O)N[C@@H](C)CO)CC4)cc3)CC2)nc1 (stereo partly drawn) [Example 127, 4-(4-((1-(5-ethylpyrimidin-2-yl)piperidin-4-yl)methoxy)phenyl)-N-((S)-1-hydroxypropan-2-yl)cyclohex-3-enecarboxamide] | 83 nM | – | – | – |
| CC(C)c1noc(N2CCC(COc3ccc(C4=CCC(C(=O)NCCC(=O)N5CCC[C@H]5C(N)=O)CC4)cc3F)CC2)n1 (stereo partly drawn) [Example 134, (2S)-1-(3-(4-(3-fluoro-4-((1-(3-isopropyl-1,2,4-oxadiazol-5-yl)piperidin-4-yl)methoxy)phenyl)cyclohex-3-enecarboxamido)propanoyl)pyrrolidine-2-carboxamide] | 350 nM | – | – | – |
| CCO/N=C1/CCN(C(=O)C2CC=C(c3ccc(OCC4CCN(c5ncc(CC)cn5)CC4)cc3)CC2)C1 (stereo not shown) [Example 269, (3-(ethoxyimino)pyrrolidin-1-yl)(4-(4-((1-(5-ethylpyrimidin-2-yl)piperidin-4-yl)methoxy)phenyl)cyclohex-3-enyl)methanone] | 35 nM | ≤ 50 nM | – | – |
| CC(C)(C)OC(=O)N1CCC(COc2ccc(C3=CCC(C(=O)NC[C@H](O)CO)CC3)cc2F)CC1 (stereo partly drawn) [Example 63, tert-butyl 4-((4-(4-((S)-2,3-dihydroxypropylcarbamoyl)cyclohex-1-enyl)-2-fluorophenoxy)methyl)piperidine-1-carboxylate] | 110 nM | – | – | – |
| CON=C1CN(C(=O)C2CC=C(c3ccc(OCC4CCN(c5nc(C(C)C)no5)CC4)cc3)CC2)C1 (stereo not shown) [Example 286, (4-(4-((1-(3-isopropyl-1,2,4-oxadiazol-5-yl)piperidin-4-yl)methoxy)phenyl)cyclohex-3-enyl)(3-(methoxyimino)azetidin-1-yl)methanone] | 37 nM | ≤ 50 nM | – | – |
| CC(C)c1noc(N2CCC(COc3ccc(C4=CCC(C(=O)N5CCC(C#N)CC5)CC4)cc3)CC2)n1 (stereo not shown) [Example 266, 1-(4-(4-((1-(3-isopropyl-1,2,4-oxadiazol-5-yl)piperidin-4-yl)methoxy)phenyl)cyclohex-3-enecarbonyl)piperidine-4-carbonitrile] | 12 nM | ≤ 50 nM | – | – |
| CC(C)c1noc(N2CCC(COc3ccc(C4=CCC(C(=O)N(C)CCCNC(=O)OC(C)(C)C)CC4)cc3)CC2)n1 (stereo not shown) [Example 76, tert-butyl 3-(4-(4-((1-(3-isopropyl-1,2,4-oxadiazol-5-yl)piperidin-4-yl)methoxy)phenyl)-N-methylcyclohex-3-enecarboxamido)propylcarbamate] | 12 nM | ≤ 50 nM | – | – |
| CCc1cnc(N2CCC(COc3ccc(C4=CCC(C(=O)N5CCC(=O)CC5)CC4)cc3)CC2)nc1 (stereo not shown) [Example 274, 1-(4-(4-((1-(5-ethylpyrimidin-2-yl)piperidin-4-yl)methoxy)phenyl)cyclohex-3-enecarbonyl)piperidin-4-one] | – | – | 27 nM | ≤ 50 nM |
| CC(C)(C)OC(=O)N1CCC(COc2ccc(C3=CCC(C(=O)N4CCC(CO)CC4)CC3)cc2)CC1 (stereo not shown) [Example 226, tert-butyl 4-((4-(4-(4-(hydroxymethyl)piperidine-1-carbonyl)cyclohex-1-enyl)phenoxy)methyl)piperidine-1-carboxylate] | 14 nM | ≤ 50 nM | – | – |
| CCc1cnc(N2CCC(COc3ccc(C4=CCC(C(=O)NCC(F)(F)F)CC4)cc3)CC2)nc1 (stereo not shown) [Example 103, 4-(4-((1-(5-ethylpyrimidin-2-yl)piperidin-4-yl)methoxy)phenyl)-N-(2,2,2-trifluoroethyl)cyclohex-3-enecarboxamide] | 75 nM | – | – | – |
| CCc1cnc(N2CCC(COc3ccc(C4=CCC(C(=O)NC[C@H](O)CO)CC4)cc3)CC2)nc1 (stereo partly drawn) [Example 128, N-((S)-2,3-dihydroxypropyl)-4-(4-((1-(5-ethylpyrimidin-2-yl)piperidin-4-yl)methoxy)phenyl)cyclohex-3-enecarboxamide] | 200 nM | – | – | – |
